Experimental data reported in patent US5677292A, “Derivatives of estra 1,3,5(10)triene-17-one,3-amino compounds and their use” (Duquesne University of the Holy Ghost, priority 1996, dated 1997).
Entries after “also recorded” stand apart in the source; their conditions may differ.

How the values were obtained:
[1] = test system: uterine weight of ovariectomized rats; assay: Ovariectomized rat uterine weight gain assay: estrogenicity; conditions: for Estrogenicity: increase in uterine weight of ovariectomized rats compared with control / Uterine weight compared with other groups (control and E1 -NH2): 25 μg/day, i.p., seven days; for Estrogenicity: increase in uterine weight of ovariectomized rats compared with control: n=5; for Uterine weight compared with other groups (control and E1 -NH2): Student-Newman-Keuls test
Protocol: Estrogenicity and antiestrogenicity were assessed using an ovariectomized rat uterine weight gain assay. […] Ovariectomized rats were maintained two weeks prior to treatment to allow their uteri to regress to basal size. Treatments were given by intraperitoneal injection in a 1% gelatin, 0.9% NaCl solution at a volume of 0.5 ml. Steroids were dissolved in ethanol to 1 mg/ml then further diluted into the injection solution to the desired concentration. All treatments were continued for seven days. At the termination of the experiments, animals were sacrificed by cervical dislocation under ether anesthesia. Body weight was taken, then uteri were excised, stripped of fat, and weighed to the nearest 0.1 mg.
(§1) Steroids were administered at 25 μg/day. For determination of antiestrogenicity, three treatment groups were established: vehicle control, estrone, and estrone E1 NH2.
A rat uterine weight gain assay was used to determine if E1 -NH2 had estrogenic or anti-estrogenic activity. […] Data are means ±SEM, n=5 for all groups. Control animals received vehicle only (0.9% NaCl, 1% gelatin, 500 μl,i.p. injection).

[2] = molecular target: T1, rat uterine estrogen receptor (Rattus norvegicus, UniProt P06211); assay: Estrogen receptor binding, displacement of 3H-estradiol in rat uterine cytosol
T1 sequence (P06211 1-600): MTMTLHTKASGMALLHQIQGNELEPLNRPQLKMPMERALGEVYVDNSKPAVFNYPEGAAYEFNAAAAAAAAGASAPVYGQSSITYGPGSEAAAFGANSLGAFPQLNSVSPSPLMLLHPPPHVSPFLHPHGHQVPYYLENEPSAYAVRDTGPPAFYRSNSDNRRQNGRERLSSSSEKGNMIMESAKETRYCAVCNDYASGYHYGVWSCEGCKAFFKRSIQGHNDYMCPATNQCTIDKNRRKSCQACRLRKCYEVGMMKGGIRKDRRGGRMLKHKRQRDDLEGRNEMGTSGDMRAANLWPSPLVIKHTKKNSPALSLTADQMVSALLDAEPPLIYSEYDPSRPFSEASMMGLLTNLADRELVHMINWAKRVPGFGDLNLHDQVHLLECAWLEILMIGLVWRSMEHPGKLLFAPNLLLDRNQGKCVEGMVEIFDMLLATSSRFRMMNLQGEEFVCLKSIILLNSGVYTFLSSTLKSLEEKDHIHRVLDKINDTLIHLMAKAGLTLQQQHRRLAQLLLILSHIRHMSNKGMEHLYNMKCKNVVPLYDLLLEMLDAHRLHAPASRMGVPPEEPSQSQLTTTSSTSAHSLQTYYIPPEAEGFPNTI
Protocol: Specific binding was calculated as total binding minus nonspecific binding.

[3] = test system: estrone-induced uterine weight gain in ovariectomized rats; assay: Ovariectomized rat uterine weight gain assay: anti-estrogenicity (block of estrone-induced uterine weight gain); assay type: in vivo
Protocol: Estrogenicity and antiestrogenicity were assessed using an ovariectomized rat uterine weight gain assay. […] Ovariectomized rats were maintained two weeks prior to treatment to allow their uteri to regress to basal size. Treatments were given by intraperitoneal injection in a 1% gelatin, 0.9% NaCl solution at a volume of 0.5 ml. Steroids were dissolved in ethanol to 1 mg/ml then further diluted into the injection solution to the desired concentration. All treatments were continued for seven days. At the termination of the experiments, animals were sacrificed by cervical dislocation under ether anesthesia. Body weight was taken, then uteri were excised, stripped of fat, and weighed to the nearest 0.1 mg. In vivo, estradiol and estrone can induce uterine weight gain in female ovariectomized rats.
as §1
Antiestrogenicity was assessed as the ability of the compound to block estrone-induced uterine weight gain in ovariectomized rats. […] Control animals received vehicle only (0.9% NaCl, 1% gelatin, 500 μl. i.p. injection).

[4] = test system: nitrosomethyl urea-induced tumor cells in castrated rats; conditions: cited from earlier work

With C[C@]12CC[C@@H]3c4ccc(O)cc4CC[C@H]3[C@@H]1CCC2=O [estrone] the “Estrogenicity: increase in uterine weight of ovariectomized rats compared with control” value (“Estrogenicity: increase” below) [1] was “significantly increased uterine weight above control levels” and the “Uterine weight compared with other groups (control and E1 -NH2)” value [1] was “significantly (p≤0.05) higher than other groups”.

For C[C@]12CC[C@@H]3c4ccc(N)cc4CC[C@H]3[C@@H]1CCC2=O [E1 -NH2, estra-1,3,5(10)-triene-17-one, 3-amine], the “Competition for / interaction with estrogen receptor” value ([2]; rat uterine cytosol, 0.01, 0.1 and 1 μM competitor) was “did not compete for estrogen receptor at the same level as estrone; also recorded: does not interact to any great extent with an estrogen receptor”, the inhibition at 1 µM ([2]; read-out: Displacement of specific 3H-estradiol binding) was 60% and the “Anti-estrogenicity: block of estrone-induced uterine growth” value ([3]; E1 -NH2 100 μg/day with estrone 2 μg/day, i.p., seven days, n=5) was “did not block estrone-induced uterine growth”. For the same molecule, the “Anti-estrogenicity (conclusion)” value ([3]; FIGS. 4 and 5) was “neither estrogenic nor anti-estrogenic”, the “Estrogenicity: increase” value [1] was “did not cause a significant increase in uterine weight” and the “Estrogenicity (conclusion)” value ([1]; FIGS. 4 and 5) was “neither estrogenic nor anti-estrogenic”.

For estrone sulfate, the “Stimulation of tumor cell growth” value [4] is given as “stimulate growth of nitrosomethyl urea-induced tumor cells in castrated rats”.

In the case of C[C@]12CC[C@@H]3c4ccc(O)cc4CC[C@H]3[C@@H]1CC[C@@H]2O [estradiol, estradiol-17β], the “Estrogenicity: increase” value [1] is reported as “significantly increased uterine weight above control levels” and the “Uterine weight compared with other groups (control and E1 -NH2)” value [1] is reported as “significantly (p≤0.05) higher than other groups”.
